In patent US8802694B2, “3,6-diazabicyclo[3.1.1]heptanes as neuronal nicotinic acetycholine receptor ligands” (Targacept, Inc., priority 2009, dated 2014):
Like-named read-outs stand apart in the source and are kept apart here.

Columns and labels:
α6β3β4α5 = target: T1, α6β3β4α5 (Homo sapiens, UniProt P30926+Q15825); test: Competition binding to α6β3β4α5 receptors in membranes of SH-EP1/α6β3β4α5 cells ([3H]-epibatidine); conditions: membrane competition binding
T1 construct: host or cells: SH-EP1

Human α4β2 = target: T2, Human α4β2 (Homo sapiens, UniProt P17787+P43681); test: Competition binding to human α4β2 receptors in membranes of SH-EP1/human α4β2 cells ([3H]-nicotine)
T2 construct: host or cells: SH-EP1

Rat α4β2 = target: T3, Rat α4β2 (Rattus norvegicus, UniProt P09483+P12390); test: Competition binding to rat α4β2 receptors in rat cortical membranes
T3 construct: Rat cortices were obtained from Analytical Biological Services; tissue Analytical Biological Services, Incorporated (ABS, Wilmington, Del.); host or cells: rat cortex (female Sprague-Dawley)
Description: Preparation of membranes from rat tissues. Rat cortices were obtained from Analytical Biological Services, Incorporated (ABS, Wilmington, Del.). Tissues were dissected from female Sprague-Dawley rats, frozen and shipped on dry ice. Tissues were stored at −20° C. until needed for membrane preparation. […] The resulting homogenate was centrifuged at 40,000 g for 20 minutes at 4° C. and the resulting pellet was resuspended in 20 volumes of ice-cold water. After 60-minute incubation at 4° C., a new pellet was collected by centrifugation at 40,000 g for 20 minutes at 4° C. The final pellet was resuspended in preparative buffer and stored at −20° C. On the day of the assay, tissue was thawed, centrifuged at 40,000 g for 20 minutes and then resuspended in PBS (Dulbecco's Phosphate Buffered Saline, Life Technologies, pH 7.4) to a final concentration of 2-3 mg protein/mL. Protein concentrations were determined using the Pierce BCA Protein Assay kit (Pierce Biotechnology, Rockford, Ill.), with bovine serum albumin as the standard.
Competition binding to receptors in membrane preparations. […] In brief, membranes were reconstituted from frozen stocks (approximately 0.2 mg protein) and incubated for 2 h on ice in […] assay buffer (PBS) in the presence of competitor compound (0.001 nM to […]) and radioligand. [^3H]-nicotine (L-(−)-[N-methyl-3H]-nicotine, 69.5 Ci/mmol, Perkin-Elmer Life Sciences) was used for human α4β2 binding studies. [^3H]-epibatidine (52 Ci/mmol, Perkin-Elmer Life Sciences) was used for binding studies at the other receptor subtypes. […] Filters were washed 3 times and the radioactivity retained was determined by liquid scintillation counting.
Binding data analysis. Binding data were expressed as percent total control binding. Replicates for each point were averaged and plotted against the log of drug concentration.

[1] = Human α4β2 Ki, membrane competition binding
[2] = Rat α4β2 Ki, rat cortex membranes
[3] = membrane competition binding, read-out: Human α4β2 Ki
[4] = rat cortex membranes, read-out: Rat α4β2 Ki

| SMILES | Ki (α6β3β4α5; read-out: α6β3β4α5 Ki) | Ki (Human α4β2; [1]) | Ki (Rat α4β2; [2]) | Ki (Human α4β2; [3]) | further results |
| --- | --- | --- | --- | --- | --- |
| O=C(C1CC12CCC2)N1C2CNCC1C2 (stereo not drawn) | 340 nM | 38 nM | 32 nM |  |  |
| O=C(C1CC2C=CC1C2)N1C2CNCC1C2 (stereo not drawn) | 900 nM |  |  | 200 nM | Ki (Rat α4β2; [4]): 380 nM |
| CC(C)CC(=O)N1C2CNCC1C2 |  |  | 59 nM | 120 nM |  |
| O=C(C1CC12CCCC2)N1CC2CC(C1)N2 (stereo not drawn) |  | 26 nM | 31 nM |  | Ki (α6β3β4α5; α6β3β4α5 Ki): 96 nM |
| O=C(c1cnco1)N1CC2CC(C1)N2 | 17000 nM | 28 nM | 0.18 nM |  |  |
| O=C(NCc1ccc(Cl)cc1)N1CC2CC(C1)N2 | 210 nM |  | 4 nM | 110 nM |  |
| [2H]C1([2H])C([2H])([2H])C1([2H])C(=O)N1CC2CC(C1)N2 |  | 0.49 nM | 0.24 nM |  | Ki (α6β3β4α5; α6β3β4α5 Ki): 120 nM |
| C[C@@H]1C[C@H]1C(=O)N1CC2CC(C1)N2 |  |  | 0.08 nM | 1 nM | Ki (α6β3β4α5; α6β3β4α5 Ki): 95 nM |
| O=C(C1CC=CCC1)N1CC2CC(C1)N2 (stereo not drawn) |  |  |  | 120 nM | Ki (Rat α4β2; [4]): 390 nM |
| CCCC(=O)N1CC2CC(C1)N2 |  | 12 nM | 4.1 nM |  | Ki (α6β3β4α5; α6β3β4α5 Ki): 290 nM |
| C[C@H]1C[C@H]1C(=O)N1CC2CC(C1)N2 |  | 1.8 nM | 0.39 nM |  | Ki (α6β3β4α5; α6β3β4α5 Ki): 58 nM |
| O=C(C1C2C3CCC(C3)C12)N1C2CNCC1C2 (stereo not drawn) | 100000 nM |  |  | 1900 nM |  |
| C[C@H]1C[C@@H]1C(=O)N1CC2CC(C1)N2 [drawing 170] |  | 13 nM | 4.8 nM |  | Ki (α6β3β4α5; α6β3β4α5 Ki): 1700 nM |
| O=C(c1ccc(Br)o1)N1CC2CC(C1)N2 [3-(2-bromofuran-5-yl)carbonyl-3,6-diazabicyclo[3.1.1]heptane] | 1800 nM | 25 nM | 83 nM |  |  |
| O=C(CC1CC1)N1C2CNCC1C2 | 310 nM | 43 nM | 27 nM |  |  |
| CCC1(CC)CC1C(=O)N1C2CNCC1C2 (stereo not drawn) | 4400 nM |  |  | 850 nM |  |
| O=C(CSc1ccc(O)cc1)N1CC2CC(C1)N2 | 120 nM | 11 nM | 8.6 nM |  |  |
| O=C(C1C2CCCCC21)N1C2CNCC1C2 (stereo not drawn) | 6400 nM |  |  | 310 nM |  |
| COCC(=O)N1CC2CC(C1)N2 |  | 79 nM | 50 nM |  |  |
| CC1CC1C(=O)N1CC2CC(C1)N2 (stereo not drawn) |  | 5 nM | 1.8 nM |  | Ki (α6β3β4α5; α6β3β4α5 Ki): 120 nM |

| SMILES | Ki (α6β3β4α5; read-out: α6β3β4α5 Ki) | Ki (Human α4β2; [1]) | Ki (Rat α4β2; [2]) | Ki (Human α4β2; [3]) | further results |
| --- | --- | --- | --- | --- | --- |
| CC1(C)CC1C(=O)N1CC2CC(C1)N2 (stereo not drawn) |  | 5.3 nM | 6.7 nM |  | Ki (α6β3β4α5; α6β3β4α5 Ki): 120 nM |
| C[C@@H]1C[C@H]1C(=O)N1C2CNCC1C2 | 1700 nM | 9.2 nM | 50 nM |  |  |
| O=C(C1CC(F)(F)C1)N1C2CNCC1C2 | 510 nM | 54 nM | 16 nM |  |  |
| O=C(c1ccc(Br)o1)N1C2CNCC1C2 [6-(2-bromorofuran-5-yl)carbonyl-3,6-diazabicyclo[3.1.1]heptane] |  | 66 nM |  |  | Ki (Rat α4β2; [4]): 260 nM |
| O=C([C@H]1C[C@H]1F)N1CC2CC(C1)N2 [drawing 163] |  |  | 0.53 nM | 1.1 nM | Ki (α6β3β4α5; α6β3β4α5 Ki): 150 nM |
| O=C(C1CCC1)N1C2CNCC1C2 [6-cyclobutylcarbonyl-3,6-diazabicyclo[3.1.1]heptane] |  | 14 nM | 26 nM |  |  |
| Cc1ncoc1C(=O)N1C2CNCC1C2 |  |  |  | 140 nM | Ki (Rat α4β2; [4]): 250 nM |
| O=C(NCc1ccc(Cl)cc1Cl)N1CC2CC(C1)N2 |  | 48 nM | 24 nM |  | Ki (α6β3β4α5; α6β3β4α5 Ki): 38 nM |
| O=C(c1occc1Cl)N1CC2CC(C1)N2 [3-(3-chlorofuran-2-yl)carbonyl-3,6-diazabicyclo[3.1.1]heptane] | 2400 nM |  |  |  | Ki (Human α4β2; read-out: Human α4β2 Ki, membrane competition binding): 7.9 nM; Ki (Rat α4β2; read-out: Rat α4β2 Ki, rat cortex membranes): 56 nM |
| C/C=C/CCC(=O)N1C2CNCC1C2 | 400 nM | 53 nM | 15 nM |  |  |
| CC1CC(C(=O)N2C3CNCC2C3)C1 (stereo not drawn) | 770 nM | 49 nM | 58 nM |  |  |
| O=C(C1C2C3CCC(C3)C12)N1CC2CC(C1)N2 (stereo not drawn) | 22000 nM |  |  | 1300 nM |  |
| C[C@H]1C[C@H]1C(=O)N1C2CNCC1C2 | 1800 nM | 9.6 nM |  |  | Ki (Rat α4β2; [4]): 180 nM |
| O=C(CC1CCC1)N1CC2CC(C1)N2 | 440 nM | 49 nM | 34 nM |  |  |
| O=C(COc1ccc(Cl)c(Cl)c1)N1CC2CC(C1)N2 | 700 nM |  |  | 330 nM |  |
| O=C(C1CC12CCCC2)N1C2CNCC1C2 (stereo not drawn) | 610 nM |  |  | 280 nM |  |
| Cc1nocc1C(=O)N1CC2CC(C1)N2 |  | 53 nM | 60 nM |  |  |
| O=C(C1CCC1)N1CC2CC(C1)N2 |  | 28 nM | 6.8 nM |  |  |
| C[C@H]1C[C@@H]1C(=O)N1C2CNCC1C2 | 31000 nM |  |  | 210 nM |  |
